Source: ChEMBL document CHEMBL3639140, “Naphthyridine derivatives as inhibitors of hypoxia inducible factor (HIF) hydroxylase” (2014)

Target: Egl nine homolog 1 (Homo sapiens, UniProt Q9GZT9)
Test: For example, a HIF peptide for use in the HIF-PH assay is [methoxycoumarin]-[…]-amide. HIF-PH, e.g., HIF-PH2 (EGLN1), can be expressed in, e.g., insect Hi5 cells, and partially purified, e.g., through a SP ion exchange chromatography column.
Type: cell-based, BTI-TN-5B1-4

Sequence of Egl nine homolog 1 (Q9GZT9 whole entry): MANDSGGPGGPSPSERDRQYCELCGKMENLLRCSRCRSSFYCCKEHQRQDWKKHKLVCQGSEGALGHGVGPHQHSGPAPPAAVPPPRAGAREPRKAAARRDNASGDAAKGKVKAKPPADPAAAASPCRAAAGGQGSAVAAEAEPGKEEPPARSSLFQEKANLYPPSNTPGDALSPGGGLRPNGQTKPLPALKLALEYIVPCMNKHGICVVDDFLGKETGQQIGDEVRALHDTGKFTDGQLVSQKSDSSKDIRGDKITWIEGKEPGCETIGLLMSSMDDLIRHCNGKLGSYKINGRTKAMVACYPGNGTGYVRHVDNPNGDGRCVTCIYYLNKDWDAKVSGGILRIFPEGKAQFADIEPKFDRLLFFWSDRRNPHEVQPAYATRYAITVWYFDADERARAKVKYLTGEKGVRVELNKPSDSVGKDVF

## O=C(NCc1ccncc1)c1ncc2c(=O)n(Cc3ccccc3)ccc2c1O
  IC50: 190 nM
